According to PubChem BioAssay (NCI):
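Protocol summary: plate cells (96-well), add compound at 5 concentrations, incubate 48 h, interpolate endpoints linearly. GI50 is the concentration that inhibits growth by half. TGI marks complete inhibition of growth.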

System: MDA-MB-468 breast
Assay: NCI tumour cell line growth inhibition, 48 h

Row | SMILES | GI50 [nM] | TGI [nM]
1 | CSC1=Nc2c(c(C)c(-c3ccccc3)n2CCCN2CCCCC2)C2=NC(=O)C[C@H](C)N12 | 2460 | 9510
2 | COc1ccc2sc3cccc(NCCN(C)C)c3c(=O)c2c1 | 2000 | 4500
3 | Cc1cccc(-c2[nH]ncc2-c2ccc3ncccc3n2)n1 | 7340 | > 16500
4 | COc1cc2c(c(OC)c1OC)-c1ccc(OC)c(=O)cc1[C@@H](N)CC2 | < 10 | 
5 | COc1cc([C@@H]2c3cc4c(c(O)c3C[C@H]3COC(=O)[C@@H]32)OCO4)cc(OC)c1OC | 65.7 | 311
6 | NC1=CC(=O)c2cccnc2C1=O | 1350 | 3030
7 | CCN(CC)CCNc1ccc(C)c2sc3cc(Cl)ccc3c(=O)c12 | 2070 | 4210
8 | CCOC(=O)[C@@H](C)C[C@H](Cc1ccccc1)NC(=O)c1nc([C@@H](C[C@H](C(C)C)N(C)C(=O)[C@@H](NC(=O)[C@H]2CCCCN2C)C(C)C)OC(C)=O)sc1CCOCc1ccccc1 | 37.4 | 492
9 | COc1ccc(/C=C(/C(=O)N2CCN(c3ccccc3)CC2)c2cc(OC)c(OC)c(OC)c2)cc1N | 251 | > 100000
10 | CCOC(=O)c1ccc(Nc2sc(C(=O)c3ccc(Br)cc3)c(N)c2C#N)cc1 | 666 | > 100000
11 | COc1cccc(CCC2CCCN(c3cc(C)nc(N)n3)C2)c1 (stereo not given) | 180 | 952
12 | NCCCNc1nc2ccccc2c2c(=O)c3cc(F)cc(F)c3sc12 | 1710 | 3810
13 | O=C1/C(=C\c2ccc(F)cc2)CN(C(=O)c2ccccc2)C/C1=C\c1ccc(F)cc1 | 1630 | 3710
14 | CN1CCC(COc2cnc(-c3cccc(Cn4nc(-c5cccc(C#N)c5)ccc4=O)c3)nc2)CC1 | 1490 | 3230
15 | CC[C@@H]1[C@@H](C)O[C@@](O)([C@@H](C)[C@H](O)[C@H](C)[C@H]2OC(=O)/C=C/C=C/[C@H](C)[C@@H]([C@@H](C)[C@@H](O)[C@H](C)[C@@]3(O)C[C@@H](O[C@H]4C[C@@H](O)[C@H](O)C(C)O4)[C@H](CC)[C@@H](C)O3)OC(=O)/C=C/C=C/[C@@H]2C)C[C@H]1O[C@@H]1C[C@@H](O)[C@H](O)C(C)O1 (stereo not given in full) | 68.8 | 204
16 | Cc1ccc(Cl)cc1Nc1nc(C(F)(F)F)ccc1C(=O)N/N=C/c1cccnc1 | 1410 | 10200
17 | CC[C@H](NC(=O)[C@H]1CCCCN1C)C(=O)N(C)[C@H](C[C@@H](OC(C)=O)c1nc(C(=O)N[C@@H](Cc2ccccc2)C[C@H](C)C(=O)O)cs1)C(C)C | 1.99 | > 14300
18 | COc1cc2nccc(Oc3ccc(NC(=O)NC4CC4)c(Cl)c3)c2cc1C(N)=O | 12500 | > 80800
19 | C=C(C)[C@@H]1CC[C@]2(COCCC#N)CC[C@]3(C)[C@H](CC[C@@H]4[C@@](C)(CCCNCCC#N)[C@H](C(=C)C)CC[C@]43C)[C@@H]12 | 17300 | > 50000
20 | CC(C)(C)N1CCC1CN (stereo not given) | > 100000 | > 100000
21 | C[C@]12CC[C@@H]3c4cc(OC(F)F)c(O)cc4CC[C@H]3[C@@H]1CC[C@@H]2OS(N)(=O)=O | 504 | 30400
22 | CCCCCCCC/C=C/CCCCCCCC1=NC(C)(C)CN1CC(C)O (stereo not given) | 4870 | 10900
23 | CSc1ccc(-c2ccccc(=O)c2O)cc1 | 334 | 4180
24 | Cc1cc(Cl)cc2c(N=Nc3ccc(S(N)(=O)=O)cc3)c(O)[nH]c12 | > 25000 | > 25000

Row | SMILES | GI50 [nM] | TGI [nM]
25 | Nc1c(C(=O)c2ccc(-c3cccnc3)cc2)cnn1-c1ccc(F)cc1 | > 25000 | > 25000
26 | COc1ccc(C(=O)Nc2ncc(Cc3cccc(Cl)c3)s2)cc1OC | 307 | > 95900
27 | CCOC(=O)C1=C(C)N=c2s/c(=C\c3ccccc3O)c(=O)n2C1c1ccc(OC)c2ccccc12 (stereo not given) | 4550 | 21200
28 | CC[C@H]1CN2CCc3cc(OC)c(OC)cc3C2C[C@@H]1CC1NCCc2cc(OC)c(OC)cc21 (stereo not given in full) | 11.8 | 37.7
29 | Cc1cc(=O)[nH]c(N/N=C/c2cc(Br)ccc2O)n1 | 460 | 16500
30 | Cn1cc(C2=C(c3ccccc3[N+](=O)[O-])C(=O)NC2=O)c2ccccc21 | 4080 | 10500
31 | Cc1ccc(NC(=O)c2ccc(CN3CCN(C)CC3)cc2)cc1Nc1nccc(-c2cccnc2)n1 | 13900 | 36200
32 | NS(=O)(=O)OCC1OC(n2cnc3cncnc32)C(O)C1O (stereo not given) | 18.9 | 48.5
33 | COC(=O)[C@@H](C)C[C@H](Cc1cn(C)c2ccccc12)NC(=O)c1csc([C@@H](C[C@H](C(C)C)N(C)C(=O)[C@@H](NC(=O)[C@H]2CCCCN2C)C(C)C)OC(C)=O)n1 | 5.85 | > 16700
34 | CCN(CC)c1ccc(NC2=C(Cl)C(=O)c3nc(C)ccc3C2=O)cc1 | 1880 | 4050
35 | CCOC(=O)c1ccccc1OC(=O)NNc1ccccc1 | 11100 | > 100000
36 | C[n+]1c(/C=C/c2c[nH]c3ccccc23)ccc2ccccc21 | 1800 | 13000
37 | Nc1ccccc1NC(=O)c1ccc(CNc2nccc(-c3cccnc3)n2)cc1 | 496 | 2250
38 | CC1(C)N=C(N)N=C(N)N1c1ccc(CCCCc2ccccc2)c(Cl)c1 | 19.6 | 1120
39 | O=C1CC[C@H](N2C(=O)c3cccc4c(Cc5ccc(CN6CCOCC6)cc5)ccc2c34)C(=O)N1 | 2730 | 62500
40 | Oc1ccc(CSc2nnc(-c3ccncc3)o2)c2cccnc12 | 2270 | 8640
41 | COc1ccc(N=Cc2c(O)ccc3c2oc2cc(Cl)c(O)c(Cl)c23)cc1 | 14200 | 67600
42 | c1ccc(N2N=C(c3cccc(Nc4ccncc4)c3)CC2c2ccc3c(c2)OCO3)cc1 (stereo not given) | 1470 | 3000
43 | Cc1cc(Nc2ccc(OCc3ccccc3)cc2)nc2cc(O)ccc12 | 2590 | 8740
44 | O=C(COc1ccc(/C=C2\COc3ccccc3C2=O)cc1)Nc1nccs1 | 2040 | 4730
45 | COC1=CC(c2ccc[nH]2)=N/C1=C\c1[nH]c(C)c(CC(=O)OCc2ccccc2)c1CCC(=O)OCc1ccccc1 | 510 | 2960
46 | C[C@]12CCc3nc(Nc4cccc(O)c4)sc3C1=CC[C@@H]1[C@@H]2CC[C@]2(C)/C(=N\NC(N)=S)CC[C@@H]12 | 1860 | 4230
47 | N#Cc1c(NC(=O)NCc2ccccc2)sc2c1CCCC2 | 425 | 11300
48 | CN(C)c1ccc(/C=C/c2ccnc3c(O)cccc23)cc1 | 574 | 3340
